Results as given in US12643882B2, “Inhibitors of human respiratory syncytial virus and metapneumovirus” (priority 2022, dated 2026).
Like-named read-outs stand apart in the source and are kept apart here.

How the values were obtained:
[1] = test system: hMPV-GFP virus; assay: microbe, parasite or virus in culture; type: cell-based, human metapneumovirus
Procedure, shortened: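 VERO cells infected with GFP-expressing hMPV at MOI 1.25 were incubated 48 h at 37 °C with compound in 10-point 3-fold dilutions (typically 40,300–2 nM final). GFP-positive cells were counted by imaging. Same-well CellTiter-Glo gave cytotoxicity, and IC50/CC50 came from 4-parameter logistic fits.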

[2] = test system: RSV-A2-GFP virus; assay: microbe, parasite or virus in culture; type: cell-based, Human Respiratory Syncytial Virus
Procedure, shortened: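 Assay-ready frozen Calu-1 cells at 20,000 cells/mL were infected with recombinant RSV-A2-GFP (MOI 1.2) in DMEM with 2% FBS. Cells were exposed to 10-point 3-fold compound dilutions for 96 h at 37° C. GFP-positive cells were counted by imaging, with same-well CellTiter-Glo for cytotoxicity, and IC50 and CC50 came from 4-parameter logistic fits.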

[3] = VERO cells infected with hMPV-GFP, 48 hrs, GFP-expressing cells counted, read-out: hMPV EC50
[4] = Calu-1 cells infected with RSV-A2-GFP, 96 hrs, GFP-expressing cells counted, read-out: RSV EC50
[5] = human metapneumovirus, Vero, 48 h, read-out: hMPV EC50, VERO cells infected with hMPV-GFP, 48 hrs, GFP-expressing cells counted
[6] = human respiratory syncytial virus, Calu-1, 96 h, read-out: RSV EC50, Calu-1 cells infected with RSV-A2-GFP, 96 hrs, GFP-expressing cells counted

Compound: CC(C)(N)c1cc(O[C@H]2[C@@H]3CN(C(=O)c4cc(-c5ncccn5)ns4)C[C@@H]32)nc(-c2ccc(F)cc2)c1 [Example 77, ((1R,5S,6s)-6-((4-(2-aminopropan-2-yl)-6-(4-fluorophenyl)pyridin-2-yl)oxy)-3-azabicyclo[3.1.0]hexan-3-yl)(3-(pyrimidin-2-yl)isothiazol-5-yl)methanone]
- EC50 [1, 3]: > 100 nM
- EC50 [2, 4]: < 10 nM

Compound: Cc1nc(-c2ncccn2)oc1C(=O)N1C[C@@H]2[C@H](C1)[C@H]2Oc1cc(C(C)(C)N)cc(-c2ccc(F)cc2)n1 [Example 78, ((1R,5S,6s)-6-((4-(2-aminopropan-2-yl)-6-(4-fluorophenyl)pyridin-2-yl)oxy)-3-azabicyclo[3.1.0]hexan-3-yl)(4-methyl-2-(pyrimidin-2-yl)oxazol-5-yl)methanone]
- EC50 [1, 5]: > 100 nM
- EC50 [2, 6]: 10 to 100 nM

Compound: Cc1nn(-c2ncccn2)c(F)c1C(=O)N1C[C@@H]2[C@H](C1)[C@H]2Oc1cc(C(C)(C)N)cc(-c2ccc(F)cc2)n1 [Example 79, ((1R,5S,6s)-6-((4-(2-aminopropan-2-yl)-6-(4-fluorophenyl)pyridin-2-yl)oxy)-3-azabicyclo[3.1.0]hexan-3-yl)(5-fluoro-3-methyl-1-(pyrimidin-2-yl)-1H-pyrazol-4-yl)methanone]
- EC50 [1, 5]: > 100 nM
- EC50 [2, 6]: < 10 nM

Compound: Cc1nn(-c2ncccn2)cc1C(=O)N1C[C@@H]2[C@H](C1)[C@H]2Oc1cc(C(C)(C)N)cc(-c2ccc(F)c(F)c2)n1 [Example 80, ((1R,5S,6s)-6-((4-(2-aminopropan-2-yl)-6-(3,4-difluorophenyl)pyridin-2-yl)oxy)-3-azabicyclo[3.1.0]hexan-3-yl)(3-methyl-1-(pyrimidin-2-yl)-1H-pyrazol-4-yl)methanone]
- EC50 [1, 5]: 10 to 100 nM
- EC50 [2, 6]: < 10 nM

Compound: Cc1nn(-c2ncccn2)cc1C(=O)N1C[C@@H]2[C@H](C1)[C@H]2Oc1cc(C(C)(C)N)cc(-c2cc(F)c(F)cc2F)n1 [Example 81, ((1R,5S,6s)-6-((4-(2-aminopropan-2-yl)-6-(2,4,5-trifluorophenyl)pyridin-2-yl)oxy)-3-azabicyclo[3.1.0]hexan-3-yl)(3-methyl-1-(pyrimidin-2-yl)-1H-pyrazol-4-yl)methanone]
- EC50 [1, 3]: 10 to 100 nM
- EC50 [2, 4]: < 10 nM

Compound: Cc1nn(-c2ncccn2)cc1C(=O)N1C[C@@H]2[C@H](C1)[C@H]2Oc1cc(C(C)(C)N)cc(-c2cc(F)c(F)c(F)c2)n1 [Example 82, ((1R,5S,6s)-6-((4-(2-aminopropan-2-yl)-6-(3,4,5-trifluorophenyl)pyridin-2-yl)oxy)-3-azabicyclo[3.1.0]hexan-3-yl)(3-methyl-1-(pyrimidin-2-yl)-1H-pyrazol-4-yl)methanone]
- EC50 [1, 3]: 10 to 100 nM
- EC50 [2, 4]: < 10 nM

Compound: Cc1nn(-c2ncccn2)cc1C(=O)N1C[C@@H]2[C@H](C1)[C@H]2Oc1cc(C(C)(C)N)cc(-c2ccc(F)c(Cl)c2)n1 [Example 83, ((1R,5S,6s)-6-((4-(2-aminopropan-2-yl)-6-(3-chloro-4-fluorophenyl)pyridin-2-yl)oxy)-3-azabicyclo[3.1.0]hexan-3-yl)(3-methyl-1-(pyrimidin-2-yl)-1H-pyrazol-4-yl)methanone]
- EC50 [1, 3]: > 100 nM
- EC50 [2, 4]: < 10 nM

Compound: Cc1nn(-c2ncccn2)cc1C(=O)N1C[C@@H]2[C@H](C1)[C@H]2Oc1cc(C(C)(C)N)cc(-c2ccc(Cl)c(F)c2)n1 [Example 84, ((1R,5S,6s)-6-((4-(2-aminopropan-2-yl)-6-(4-chloro-3-fluorophenyl)pyridin-2-yl)oxy)-3-azabicyclo[3.1.0]hexan-3-yl)(3-methyl-1-(pyrimidin-2-yl)-1H-pyrazol-4-yl)methanone]
- EC50 [1, 3]: > 100 nM
- EC50 [2, 4]: < 10 nM

Compound: Cc1nn(-c2ncccn2)cc1C(=O)N1C[C@@H]2[C@H](C1)[C@H]2Oc1cc(C(C)(C)N)cc(-c2ccc(Cl)cc2)n1 [Example 85, ((1R,5S,6s)-6-((4-(2-aminopropan-2-yl)-6-(4-chlorophenyl)pyridin-2-yl)oxy)-3-azabicyclo[3.1.0]hexan-3-yl)(3-methyl-1-(pyrimidin-2-yl)-1H-pyrazol-4-yl)methanone]
- EC50 [1, 3]: 10 to 100 nM
- EC50 [2, 4]: < 10 nM

Compound: Cc1nn(-c2ncccn2)cc1C(=O)N1C[C@@H]2[C@H](C1)[C@H]2Oc1cc(C(C)(C)N)cc(-c2ccc(C(F)(F)F)cc2)n1 [Example 86, ((1R,5S,6s)-6-((4-(2-aminopropan-2-yl)-6-(4-(trifluoromethyl)phenyl)pyridin-2-yl)oxy)-3-azabicyclo[3.1.0]hexan-3-yl)(3-methyl-1-(pyrimidin-2-yl)-1H-pyrazol-4-yl)methanone]
- EC50 [1, 3]: 10 to 100 nM
- EC50 [2, 4]: < 10 nM

Compound: Cc1nn(-c2ncccn2)cc1C(=O)N1C[C@@H]2[C@H](C1)[C@H]2Oc1cc(C(C)(C)N)cc(-c2ccc(C(F)(F)F)nc2)n1 [Example 87, ((1R,5S,6s)-6-((4-(2-aminopropan-2-yl)-6′-(trifluoromethyl)-[2,3′-bipyridin]-6-yl)oxy)-3-azabicyclo[3.1.0]hexan-3-yl)(3-methyl-1-(pyrimidin-2-yl)-1H-pyrazol-4-yl)methanone]
- EC50 [1, 3]: > 100 nM
- EC50 [2, 4]: < 10 nM

Compound: COc1cc(C(F)(F)F)ccc1-c1cc(C(C)(C)N)cc(O[C@H]2[C@@H]3CN(C(=O)c4cn(-c5ncccn5)nc4C)C[C@@H]32)n1 [Example 88, ((1R,5S,6s)-6-((4-(2-aminopropan-2-yl)-6-(2-methoxy-4-(trifluoromethyl)phenyl)pyridin-2-yl)oxy)-3-azabicyclo[3.1.0]hexan-3-yl)(3-methyl-1-(pyrimidin-2-yl)-1H-pyrazol-4-yl)methanone]
- EC50 [1, 3]: > 100 nM
- EC50 [2, 4]: < 10 nM

Compound: Cc1nn(-c2ncccn2)cc1C(=O)N1C[C@@H]2[C@H](C1)[C@H]2Oc1cc(C(C)(C)N)cc(-c2cc3ccccc3[nH]2)n1 [Example 89, ((1R,5S,6s)-6-((4-(2-aminopropan-2-yl)-6-(1H-indol-2-yl)pyridin-2-yl)oxy)-3-azabicyclo[3.1.0]hexan-3-yl)(3-methyl-1-(pyrimidin-2-yl)-1H-pyrazol-4-yl)methanone]
- EC50 [1, 3]: > 100 nM
- EC50 [2, 4]: < 10 nM

Compound: Cc1nn(-c2ncccn2)cc1C(=O)N1C[C@@H]2[C@H](C1)[C@H]2Oc1cc(C(C)(C)N)cc(C2=CCC(C)(C)CC2)n1 [Example 90, ((1R,5S,6s)-6-((4-(2-aminopropan-2-yl)-6-(4,4-dimethylcyclohex-1-en-1-yl)pyridin-2-yl)oxy)-3-azabicyclo[3.1.0]hexan-3-yl)(3-methyl-1-(pyrimidin-2-yl)-1H-pyrazol-4-yl)methanone]
- EC50 [1, 3]: > 100 nM
- EC50 [2, 4]: < 10 nM

Compound: CC(C)(N)c1cc(O[C@H]2[C@@H]3CN(C(=O)c4cn(-c5ncccn5)nc4C(F)F)C[C@@H]32)nc(-c2ccc(F)c(F)c2)c1 [Example 91, ((1R,5S,6s)-6-((4-(2-aminopropan-2-yl)-6-(3,4-difluorophenyl)pyridin-2-yl)oxy)-3-azabicyclo[3.1.0]hexan-3-yl)(3-(difluoromethyl)-1-(pyrimidin-2-yl)-1H-pyrazol-4-yl)methanone]
- EC50 [1, 3]: > 100 nM
- EC50 [2, 4]: < 10 nM

Compound: CC(C)(N)c1cc(O[C@H]2[C@@H]3CN(C(=O)c4cn(-c5ncccn5)nc4C(F)(F)F)C[C@@H]32)nc(-c2ccc(F)c(F)c2)c1 [Example 92, ((1R,5S,6s)-6-((4-(2-aminopropan-2-yl)-6-(3,4-difluorophenyl)pyridin-2-yl)oxy)-3-azabicyclo[3.1.0]hexan-3-yl)(1-(pyrimidin-2-yl)-3-(trifluoromethyl)-1H-pyrazol-4-yl)methanone]
- EC50 [1, 3]: > 100 nM
- EC50 [2, 4]: < 10 nM
